Patent EP0720988A1, “Pseudopeptides containing trifluoromethyl substituted 2-azabicyclooctane” (BAYER AG, priority 1995, dated 1996)
Structures can show the parent of a compound that is named as a salt. Where two headings read alike, the source gives them in different places.

Columns and labels:
HIV-1-Protease [1] = molecular target: T1, HIV-1-Protease (Human immunodeficiency virus type 1 group M subtype B, UniProt P04585); test: HIV-specific protease enzyme assay (purified HIV protease, synthetic peptide substrate, RP-HPLC analysis of cleavage products); format: biochemical; conditions: synthetic peptide imitating a Gag precursor cleavage site
T1 construct: Gereinigte HIV-Protease wurde mit synthetischem Peptid

HIV = HIV infection in cell culture (PBL), suppression of virus-induced syncytia formation; format: cell-based; conditions: 50% suppression of virus-induced syncytia, read between day 3 and 6 after infection
Protocol: HIV-Infektion in Zellkultur
Der HIV-Test wurde mit geringen Modifikationen nach der Methode von Pauwels et al. [vgl. Journal of Virological Methods 20, (1988), 309-321] durchgeführt.
Normale menschliche Blutlymphozyten (PBL's) wurden über Ficoll-Hypaque angereichert und im RPMI 1640, 20% fötales Kälberserum mit Phytohaemagglutinin (90 µg/ml) und Interleukin-2 (40 U/ml) stimuliert. Zur Infektion mit dem in-fektiösen HIV wurden PBL's pelletiert und das Zellpellet wurde anschließend in 1 ml HIV-Virusadsorptionslösung suspendiert und 1 Stunde bei 37°C inkubiert.
Die Virusadsorptionslösung wurde zentrifugiert und das infizierte Zellpellet in Wachstumsmedium aufgenommen, so daß 1 x 10^5 Zellen pro ml eingestellt waren. Die derart infizierten Zellen wurden zu 1 x 10^4 Zellen/Napf in die Näpfe von 96er Mikrotiterplatten pipettiert.
Die erste vertikale Reihe der Mikrotiterplatte enthielt nur Wachstumsmedium und Zellen, die nicht infiziert, aber ansonsten genauso wie oben beschrieben, behandelt worden waren (Zellkontrolle). Die zweite vertikale Reihe der Mikrotiterplatte erhielt nur HIV-infizierte Zellen (Viruskontrolle) in Wachstumsmedium. Die übrigen Näpfe enthielten die erfindungsgemäßen Verbindungen in unterschiedlichen Konzentrationen, ausgehend von den Näpfen der 3. vertikalen Reihe der Mikrotiterplatte, von der die Prüfsubstanzen in 2er Schritten 2^10fach verdünnt wurden.
Die Testansätze wurden so lange bei 37°C inkubiert, bis in der unbehandelten Viruskontrolle die für das HIV typische Syncytienbildung auftrat (zwischen Tag 3 und 6 nach Infektion), die dann mikroskopisch ausgewertet wurde. In der unbehandelten Viruskontrolle resultierten unter diesen Testbedingungen etwa 20 Syncytien, währen die unbehandelte Zellkontrolle keine Syncytien aufwies.
Die IC50-Werte wurden als die Konzentration der behandelten und infizierten Zellen ermittelt, bei der 50% (ca. 10 Syncytien) der virusinduzierten Syncytien durch die Behandlung mit der erfindungsgemäßen Verbindung unterdrückt waren.

HIV-1-Protease [2] = molecular target: T1, HIV-1-Protease; test: HIV-specific protease enzyme assay (purified HIV protease, synthetic peptide substrate, RP-HPLC analysis of cleavage products); format: biochemical; conditions: synthetic peptide imitating a Gag precursor cleavage site, 50% inhibition of protease activity
Excerpt: Es wurde überraschend gefunden, daß die Verbindungen der allgemeinen Formel (I) eine außerordentlich starke Wirkung gegen Retroviren besitzen. Dies wird mit einem HIV-spezifischen Protease-Enzymtest belegt.
Die Ergebnisse der unten aufgeführten Beispiele wurden nach dem in den folgenden Literaturangaben [vgl. Hansen, J., Billich, S., Schulze, T., Sukrow, S. and Mölling, K. (1988), EMBO Journal, Vol, 7, No. 6, pp. 1785 - 1791] beschriebenen HIV-Testsystem ermittelt: Gereinigte HIV-Protease wurde mit synthetischem Peptid, das eine Schnittstelle im Gag-Precursor-Protein imitiert und eine in vivo-Spaltstelle der HIV-Protease darstellt, inkubiert. Die entstandenen Spaltprodukte des synthetischen Peptids wurden über Reverse Phase High Performance Liquid Chromatography (RP-HPLC) analysiert. Die angegebenen IC50-Werte beziehen sich auf die Substanzkonzentration, die unter den oben aufgeführten Testbedingungen eine 50%ige Hemmung der Protease-Aktivität bewirkt.

[3] = read-out: PBL IC50, HIV-infected normal human blood lymphocytes (PBL's)
[4] = HIV-1-Protease-Inhibition IC50, purified HIV protease
[5] = Human immunodeficiency virus 1, Lymphocyte, 72 h, read-out: PBL IC50, HIV-infected normal human blood lymphocytes (PBL's)
[6] = purified HIV protease, read-out: HIV-1-Protease-Inhibition IC50

SMILES | HIV-1-Protease-Inhibition IC95 (HIV-1-Protease [1]) | further results
NC(=O)C[C@H](NC(=O)c1cnc2ccccc2n1)C(=O)N[C@@H](Cc1ccccc1)[C@H](O)CN1[C@H](C(F)(F)F)C[C@@H]2CCC[C@@H]21 [Beispiel 1] | 1,9 x 10^-10 Mol/l | IC50 (HIV; [3]): 81.7 nM; IC50 (HIV-1-Protease [2]; [4]): 0.018 nM
NC(=O)C[C@H](NC(=O)c1cnc2ccccc2n1)C(=O)N[C@@H](Cc1ccccc1)[C@H](O)CN1[C@H](C(F)(F)F)C[C@@H]2CCC[C@@H]21 [Beispiel 2] | 3,6 x 10^-11 Mol/l | IC50 (HIV; [3]): 38.5 nM; IC50 (HIV-1-Protease [2]; read-out: HIV-1-Protease-Inhibition IC50, purified HIV protease): 0.017 nM
NC(=O)C[C@H](NC(=O)c1ccc2ccccc2n1)C(=O)N[C@@H](Cc1ccccc1)[C@H](O)CN1[C@H](C(F)(F)F)C[C@@H]2CCC[C@@H]21 [Beispiel 3, (2R,3S)-3-(Chinolin-2-yl-L-asparaginyl)-amino-1-[(S,S,S)-3-trifluormethyl-2-azabicyclo[3.3.0]octan-2-yl}-2-hydroxy-4-phenyl-butan] | 2,2 x 10^-8 Mol/l | IC50 (HIV; [5]): 35 nM; IC50 (HIV-1-Protease [2]; [4]): 0.24 nM
NC(=O)C[C@H](NC(=O)c1ccc2ccccc2n1)C(=O)N[C@@H](Cc1ccccc1)[C@H](O)CN1[C@H](C(F)(F)F)C[C@@H]2CCC[C@@H]21 [Beispiel 4, (2R,3S)-3-(Chinolin-2-yl-L-asparaginyl)-amino-1-[(S,S,S)-3-trifluormethyl-2-azabicylco[3.3.0]octan-2-yl}-2-hydroxy-4-phenyl-butan Hydrochlorid] | 3,3 x 10^-8 Mol/l | IC50 (HIV; [3]): 22.5 nM; IC50 (HIV-1-Protease [2]; [4]): 0.6 nM
Cc1cc2ncc(C(=O)N[C@@H](CC(N)=O)C(=O)N[C@@H](Cc3ccccc3)[C@H](O)CN3[C@H](C(F)(F)F)C[C@@H]4CCC[C@@H]43)nc2cc1C [Beispiel 8] | 3,2 x 10^-6 Mol/l | –
Cc1cc2ncc(C(=O)N[C@@H](CC(N)=O)C(=O)N[C@@H](Cc3ccccc3)[C@H](O)CN3[C@H](C(F)(F)F)C[C@@H]4CCC[C@@H]43)nc2cc1C [Beispiel 9] | 2,6 x 10^-9 Mol/l | –
Cc1ccc2nc(C(=O)N[C@@H](CC(N)=O)C(=O)N[C@@H](Cc3ccccc3)[C@H](O)CN3[C@H](C(F)(F)F)C[C@@H]4CCC[C@@H]43)ccc2c1 [Beispiel 10] | 3,1 x 10^-7 Mol/l | –
Cc1ccc2nc(C(=O)N[C@@H](CC(N)=O)C(=O)N[C@@H](Cc3ccccc3)[C@H](O)CN3[C@H](C(F)(F)F)C[C@@H]4CCC[C@@H]43)ccc2c1 [Beispiel 11] | 3,6 x 10^-11 Mol/l | –
NC(=O)C[C@H](NC(=O)c1ccc2cc(Cl)ccc2n1)C(=O)N[C@@H](Cc1ccccc1)[C@H](O)CN1[C@H](C(F)(F)F)C[C@@H]2CCC[C@@H]21 [Beispiel 12] | 3,7 x 10^-9 Mol/l | –
NC(=O)C[C@H](NC(=O)c1ccc2cc(Cl)ccc2n1)C(=O)N[C@@H](Cc1ccccc1)[C@H](O)CN1[C@H](C(F)(F)F)C[C@@H]2CCC[C@@H]21 [Beispiel 13] | 2,5 x 10^-10 Mol/l | –
NC(=O)C[C@H](NC(=O)COc1ccccc1-c1ccccc1)C(=O)N[C@@H](Cc1ccccc1)[C@H](O)CN1[C@H](C(F)(F)F)C[C@@H]2CCC[C@@H]21 [Beispiel 14] | 1,8 x 10^-7 Mol/l | IC50 (HIV; [5]): 600 nM; IC50 (HIV-1-Protease [2]; [6]): 3.5 nM
NC(=O)C[C@H](NC(=O)COc1ccccc1-c1ccccc1)C(=O)N[C@@H](Cc1ccccc1)[C@H](O)CN1[C@H](C(F)(F)F)C[C@@H]2CCC[C@@H]21 [Beispiel 15] | 2,9 x 10^-8 Mol/l | IC50 (HIV-1-Protease [2]; [6]): 2.2 nM
Cc1c(O)cccc1C(=O)N[C@@H](CC(N)=O)C(=O)N[C@@H](Cc1ccccc1)[C@H](O)CN1[C@H](C(F)(F)F)C[C@@H]2CCC[C@@H]21 [Beispiel 16] | 2,7 x 10^-6 Mol/l | IC50 (HIV-1-Protease [2]; [6]): 200 nM
Cc1cnc(C)c(COC(=O)N[C@@H](CC(N)=O)C(=O)N[C@@H](Cc2ccccc2)[C@H](O)CN2[C@H](C(F)(F)F)C[C@@H]3CCC[C@@H]32)c1 [Beispiel 17] | 3,7 x 10^-5 Mol/l | IC50 (HIV-1-Protease [2]; [6]): 1900 nM
